# Values joined by “and” are separate entries in the source; they are usually repeats but may differ in a detail not shown here. Identical values can stand only once. Toxic doses and inconclusive results are not listed.
# System: P388 leukemia ip, CD2F1 mice, survival T/C
# Assay: NCI In Vivo Anticancer Drug Screen. Data for tumor model P388 Leukemia (intraperitoneal) in CD2F1 (CDF1) mice
# Settings: endpoint: median survival time, higher = longer survival
# Method in brief: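 Mice carrying the transplanted tumor received test compound or vehicle. Survival was recorded in each group, and the value is the treated-group measurement divided by that of the vehicle-treated control group.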
# [1] = dose: 50.0 mg/kg/injection, schedule: Q04DX003 (ip), vehicle: saline with Tween-80
# [2] = dose: 100.0 mg/kg/injection, schedule: Q04DX003 (ip), vehicle: saline with Tween-80
# [3] = dose: 200.0 mg/kg/injection, schedule: Q04DX003 (ip), vehicle: saline with Tween-80
# [4] = dose: 50.0 mg/kg/injection, schedule: Q01DX009 (ip), vehicle: Klucel (hydroxypropylcellulose) (HPC)
# [5] = dose: 100.0 mg/kg/injection, schedule: Q01DX009 (ip), vehicle: Klucel (hydroxypropylcellulose) (HPC)
# [6] = dose: 200.0 mg/kg/injection, schedule: Q01DX009 (ip), vehicle: Klucel (hydroxypropylcellulose) (HPC)
# [7] = dose: 60.0 mg/kg/injection, schedule: Q01DX005 (ip), vehicle: saline with Tween-80
# [8] = dose: 120.0 mg/kg/injection, schedule: Q01DX005 (ip), vehicle: saline with Tween-80
# [9] = dose: 240.0 mg/kg/injection, schedule: Q01DX005 (ip), vehicle: saline with Tween-80
# [10] = dose: 50.0 mg/kg/injection, schedule: Q01DX005 (ip), vehicle: Klucel (hydroxypropylcellulose) (HPC)
# [11] = dose: 100.0 mg/kg/injection, schedule: Q01DX005 (ip), vehicle: Klucel (hydroxypropylcellulose) (HPC)
# [12] = dose: 200.0 mg/kg/injection, schedule: Q01DX005 (ip), vehicle: Klucel (hydroxypropylcellulose) (HPC)
# [13] = dose: 100.0 mg/kg/injection, schedule: Q01DX009 (ip), vehicle: saline with Tween-80
# [14] = dose: 25.0 mg/kg/injection, schedule: Q01DX009 (ip), vehicle: saline with Tween-80
# [15] = dose: 50.0 mg/kg/injection, schedule: Q01DX009 (ip), vehicle: saline with Tween-80
compound,measurement,setting,value
O=C(NCc1ccccc1)c1ccc(Cl)c(Cl)c1,T/C,"dose: 25.0 mg/kg/injection, schedule: Q04DX003 (ip), vehicle: saline with Tween-80",101 % of control
same,T/C,[1],104 % of control
same,T/C,[2],90 % of control
same,T/C,[3],95 % of control
Cc1cccc2c(/C=C/c3ccc(N(C)C)cc3)ccnc12,T/C,"dose: 25.0 mg/kg/injection, schedule: Q01DX009 (ip), vehicle: Klucel (hydroxypropylcellulose) (HPC)",105 % of control
same,T/C,[4],105 % of control and 117 % of control
same,T/C,[5],117 % of control
same,T/C,[6],106 % of control
COc1cc(O)c(C(C)c2ccccc2)cc1N=NC(N)=O (stereo not drawn),T/C,"dose: 6.25 mg/kg/injection, schedule: Q01DX005 (ip), vehicle: saline with Tween-80",96 % of control
same,T/C,"dose: 12.5 mg/kg/injection, schedule: Q01DX005 (ip), vehicle: saline with Tween-80",90 % of control
same,T/C,"dose: 25.0 mg/kg/injection, schedule: Q01DX005 (ip), vehicle: saline with Tween-80",89 % of control
Cc1c(C)c(C)c(S(=O)(=O)N2CCN(S(=O)(=O)c3c(C)c(C)c(C)c(C)c3C)CC2)c(C)c1C,T/C,"dose: 50.0 mg/kg/injection, schedule: Q01DX005 (ip), vehicle: saline with Tween-80",100 % of control
same,T/C,"dose: 100.0 mg/kg/injection, schedule: Q01DX005 (ip), vehicle: saline with Tween-80",97 % of control
same,T/C,"dose: 200.0 mg/kg/injection, schedule: Q01DX005 (ip), vehicle: saline with Tween-80",96 % of control
COC1(C)C(=O)N(C)C1c1ccccc1 (stereo not drawn),T/C,[7],100 % of control
same,T/C,[8],97 % of control
same,T/C,[9],100 % of control
O=C(NC[N+]12CCO[B-]1(c1ccccc1)OCC2)c1ccccc1O (stereo not drawn),T/C,[10],106 % of control
same,T/C,[11],98 % of control
same,T/C,[12],103 % of control
[N-]=[N+]=N/C=C/C(=O)OCCBr,T/C,"dose: 15.0 mg/kg/injection, schedule: Q01DX005 (ip), vehicle: saline",97 % of control
same,T/C,"dose: 30.0 mg/kg/injection, schedule: Q01DX005 (ip), vehicle: saline",103 % of control
same,T/C,"dose: 60.0 mg/kg/injection, schedule: Q01DX005 (ip), vehicle: saline",102 % of control and 97 % of control
N#Cc1ccc(NN=NCCO)cc1,T/C,"dose: 12.5 mg/kg/injection, schedule: Q01DX009 (ip), vehicle: distilled water + Tween-80",100 % of control
same,T/C,"dose: 25.0 mg/kg/injection, schedule: Q01DX009 (ip), vehicle: distilled water + Tween-80",102 % of control
same,T/C,"dose: 50.0 mg/kg/injection, schedule: Q01DX009 (ip), vehicle: distilled water + Tween-80",100 % of control
same,T/C,"dose: 100.0 mg/kg/injection, schedule: Q01DX009 (ip), vehicle: distilled water + Tween-80",102 % of control
O=P(Oc1cccc2ccccc12)(N1CC1)N1CC1,T/C,"dose: 6.25 mg/kg/injection, schedule: Q01DX009 (ip), vehicle: saline",90 % of control
same,T/C,"dose: 12.5 mg/kg/injection, schedule: Q01DX009 (ip), vehicle: saline",95 % of control
same,T/C,"dose: 25.0 mg/kg/injection, schedule: Q01DX009 (ip), vehicle: saline",100 % of control
same,T/C,[13],177 % of control
same,T/C,"dose: 200.0 mg/kg/injection, schedule: Q01DX009 (ip), vehicle: saline with Tween-80",95 % of control
CC(=O)O/C(C#N)=C1\CCCC\C1=C(\C#N)OC(C)=O,T/C,"dose: 6.25 mg/kg/injection, schedule: Q01DX001 (ip), vehicle: saline with Tween-80",103 % of control
same,T/C,"dose: 12.5 mg/kg/injection, schedule: Q01DX001 (ip), vehicle: saline with Tween-80",107 % of control
same,T/C,"dose: 25.0 mg/kg/injection, schedule: Q01DX001 (ip), vehicle: saline with Tween-80",103 % of control
O=C(O)c1c(C(=O)O)c2cccn2c2c1cnn2-c1ccccc1,T/C,[7],102 % of control
same,T/C,[8],100 % of control
same,T/C,[9],100 % of control
O=C(Nc1ccccc1)OC(CN1CCCCC1)C(CN1CCCCC1)OC(=O)Nc1ccccc1 (stereo not drawn),T/C,"dose: 12.5 mg/kg/injection, schedule: Q01DX005 (ip), vehicle: Klucel (hydroxypropylcellulose) (HPC)",99 % of control
same,T/C,"dose: 25.0 mg/kg/injection, schedule: Q01DX005 (ip), vehicle: Klucel (hydroxypropylcellulose) (HPC)",91 % of control
same,T/C,[12],87 % of control
NC(=S)N/N=C/c1cc(Br)ccc1O,T/C,[2],86 % of control
same,T/C,[3],94 % of control
same,T/C,"dose: 400.0 mg/kg/injection, schedule: Q04DX003 (ip), vehicle: saline with Tween-80",112 % of control
C/C(=N/N=C(N)N)c1cn[nH]c1C,T/C,"dose: 60.0 mg/kg/injection, schedule: Q01DX005 (ip), vehicle: Klucel (hydroxypropylcellulose) (HPC)",107 % of control
same,T/C,"dose: 120.0 mg/kg/injection, schedule: Q01DX005 (ip), vehicle: Klucel (hydroxypropylcellulose) (HPC)",100 % of control
Cc1ccc(S(=O)(=O)N/N=C/C(N)=O)cc1,T/C,"dose: 12.5 mg/kg/injection, schedule: Q01DX009 (ip), vehicle: other",101 % of control
same,T/C,"dose: 25.0 mg/kg/injection, schedule: Q01DX009 (ip), vehicle: other",101 % of control
same,T/C,"dose: 50.0 mg/kg/injection, schedule: Q01DX009 (ip), vehicle: other",96 % of control
same,T/C,"dose: 100.0 mg/kg/injection, schedule: Q01DX009 (ip), vehicle: other",104 % of control
same,T/C,"dose: 200.0 mg/kg/injection, schedule: Q01DX009 (ip), vehicle: other",118 % of control
same,T/C,"dose: 400.0 mg/kg/injection, schedule: Q01DX009 (ip), vehicle: other",101 % of control
COC(=O)C1=C(C(=O)OC)C2(c3ccccc3-c3ccccc32)C2C=CC=CN12 (stereo not drawn),T/C,[10],100 % of control
same,T/C,[11],101 % of control
same,T/C,[12],100 % of control
CCN(CC)CCNc1ccc(C)c2sc3ccc(OC)cc3c(=O)c12,T/C,[14],115 % of control
same,T/C,[15],115 % of control and 90 % of control
O=C1NC(=O)C2CCCCC12 (stereo not drawn),T/C,"dose: 12.5 mg/kg/injection, schedule: Q01DX009 (ip), vehicle: saline with Tween-80",109 % of control
same,T/C,[14],102 % of control
same,T/C,[15],100 % of control
same,T/C,[13],100 % of control
COc1ccc(NC(=O)C2C(=O)C(=O)N(c3ccc(OC)cc3)C2=O)cc1 (stereo not drawn),T/C,"dose: 100.0 mg/kg/injection, schedule: Q04DX002 (ip), vehicle: saline with Tween-80",100 % of control
same,T/C,"dose: 200.0 mg/kg/injection, schedule: Q04DX002 (ip), vehicle: saline with Tween-80",101 % of control
Cc1ccc(S(=O)(=O)Sc2nnnn2-c2ccccc2)cc1,T/C,[4],97 % of control
same,T/C,[5],103 % of control
same,T/C,[6],97 % of control
O=[N+]([O-])c1cc2cccc([N+](=O)[O-])c2o1,T/C,[10],100 % of control
same,T/C,[11],109 % of control
same,T/C,[12],102 % of control
CC(C)(C)N1OC2(c3ccccc3)OC3N(C(C)(C)C)OC4(c5ccccc5)OC1C2(c1ccccc1)C34c1ccccc1 (stereo not drawn),T/C,[7],111 % of control
same,T/C,[8],87 % of control
same,T/C,[9],86 % of control
CCOC(=O)Nc1cc(Cl)c2ncn(C(=O)OCC)c2n1,T/C,[4],96 % of control
same,T/C,[5],90 % of control
same,T/C,[6],93 % of control
COc1ccc(-n2nnnc2N(C)c2ccccc2)cc1,T/C,[1],100 % of control
same,T/C,[2],94 % of control
same,T/C,[3],96 % of control
COC(=O)[C@@]12OC[C@]34C([C@@H](O)C1O)[C@@]1(C)CC(=O)C(O)=C(C)C1C[C@H]3OC(=O)[C@H](OC(=O)c1ccc(Cl)cc1)[C@H]42 (stereo partly drawn),T/C,"dose: 0.25 mg/kg/injection, schedule: Q01DX005 (ip), vehicle: DMSO",112 % of control
same,T/C,"dose: 0.5 mg/kg/injection, schedule: Q01DX005 (ip), vehicle: DMSO",116 % of control
same,T/C,"dose: 1.0 mg/kg/injection, schedule: Q01DX005 (ip), vehicle: DMSO",113 % of control and 115 % of control
same,T/C,"dose: 2.0 mg/kg/injection, schedule: Q01DX005 (ip), vehicle: DMSO",109 % of control and 118 % of control
same,T/C,"dose: 4.0 mg/kg/injection, schedule: Q01DX005 (ip), vehicle: DMSO",109 % of control
same,T/C,"dose: 8.0 mg/kg/injection, schedule: Q01DX005 (ip), vehicle: DMSO",110 % of control and 115 % of control
same,T/C,"dose: 16.0 mg/kg/injection, schedule: Q01DX005 (ip), vehicle: DMSO",112 % of control
CN(C)CCC#N,T/C,"dose: 50.0 mg/kg/injection, schedule: Q01DX009 (ip), vehicle: saline",117 % of control
same,T/C,"dose: 100.0 mg/kg/injection, schedule: Q01DX009 (ip), vehicle: saline",105 % of control
same,T/C,"dose: 200.0 mg/kg/injection, schedule: Q01DX009 (ip), vehicle: saline",100 % of control
